Results published in patent publication US7625948B2, “Ester compound and medicinal use thereof” (Japan Tobacco Inc., priority 2002, dated 2009).

Tested on: HepG2 cells
Assay: Test Example 2: inhibition of apolipoprotein B secretion from HepG2 cells, ELISA (also used for metabolites in Test Example 8)
Assay type: cell-based
Details: Homo sapiens, 24 hours, apo B in supernatant by ELISA, read-out: Test Example 2 Inhibition of apo B secretion IC50
Procedure: Inhibition of Apolipoprotein B Secretion from HepG2 Cells
HepG2 cells were suspended in Dulbecco's Modified Eagle's Medium (DMEM) (containing 10% fetal bovine serum, 100 units/mL penicillin and 100 μg/mL streptomycin), and placed on a 96-well plate (4×10^4 cells/well), then incubated for 24 hours. After removal of the medium, DMEM was replaced by a medium containing a sample dissolved in DMSO or a medium containing DMSO (concentration of DMSO: 0.5%) and incubation was further performed for 24 hours, after which the supernatant was recovered, and concentration of apo B in the supernatant was assayed by Enzyme-Linked Immunosorbent Assay (ELISA)
ELISA was carried out as follows. Anti-human apo B monoclonal antibody (0.5 μg/well) diluted with a solution of sodium carbonate in sodium bicarbonate buffer (50 mL, pH 9.6) was placed in a 96-well plate for ELISA, and allowed to stand at room temperature for 15 hours. After washing the plate, a blocking solution (250 μL/well) was placed in the well, and allowed to stand at room temperature for 1.5 hours. After washing the plate, a standard and a sample (100 μL/well) were placed in the well and allowed to stand at room temperature for one hour. The standard was prepared by adjusting the concentration of the purified human apo B with the DMEM to 0 to 1000 ng/mL. After washing the plate, an anti-human apo B polyclonal antibody labeled with a horse radish peroxidase which was diluted in 1:1000 with DEME (100 μL/well), and allowed to stand at room temperature for one hour. After washing the plate, 2,2-azinobis(3-ethylbenzothiazoline-6-sulfonic acid) solution (100 μL/well) was placed in the well, and allowed to stand at room temperature for one hour. The reaction was stopped by addition of 2% oxalic acid (100 μL/well), and absorbency at 405 nm was measured. Concentration of apo B in the sample was calculated on the basis of a standard curve of the standard. Inhibition rate (%) was calculated from the assayed values in accordance with the following equation.
Inhibition rate (%)=100×(1 minus (concentration of apo B in sample group/concentration of apo B in DMSO group).
Based on the above equation, 50% inhibition concentration (IC50) was determined.
Inhibitory Activity on MTP and apo B Secretion Inhibition by Metabolites
In a similar manner to Test Examples 1 and 2, the activity of metabolites was assayed.

| SMILES | IC50 [nM] |
| --- | --- |
| CCOC(=O)C(COC(=O)Cc1ccc(NC(=O)c2ccccc2-c2ccc(C(F)(F)F)c(F)c2)c(C(=O)N(C)C)c1)(C(=O)OCC)c1ccccc1 [Example 2-61] | 0.38 |
| CCOC(=O)C(COC(=O)Cc1ccc(NC(=O)c2ccccc2-c2ccc(C(F)(F)F)c(Cl)c2)c(C(=O)N(C)C)c1)(C(=O)OCC)c1ccccc1 [Example 2-62] | 0.37 |
| CCOC(=O)C(COC(=O)Cc1cc(C(=O)N(C)C)c(NC(=O)c2ccccc2-c2ccc(C(F)(F)F)cc2)c(Cl)c1F)(C(=O)OCC)c1ccccc1 [Example 2-66] | 57 |
| CCOC(=O)C(COC(=O)Cc1cc(C(=O)N(C)C)c(NC(=O)c2ccccc2-c2ccc(C(F)(F)F)cc2)c(Br)c1F)(C(=O)OCC)c1ccccc1 [Example 2-67] | 43 |
| CCOC(=O)C(COC(=O)Cc1ccc(NC(=O)c2ccccc2-c2ccc(C(F)(F)F)cc2)c(C(=O)N(C)C)c1)(C(=O)OCC)c1ccccc1C [Example 2-68] | 2.25 |
| CCOC(=O)C(COC(=O)Cc1ccc(NC(=O)c2ccccc2-c2ccc(C(F)(F)F)cc2)c(C(=O)N(C)C)c1)(C(=O)OCC)c1cccc(C)c1 [Example 2-69] | 0.91 |
| CCOC(=O)C(COC(=O)Cc1ccc(NC(=O)c2ccccc2-c2ccc(C(F)(F)F)cc2)c(C(=O)N(C)C)c1)(C(=O)OCC)c1ccc(C)cc1 [Example 2-70] | 2.34 |
| CCOC(=O)C(COC(=O)Cc1ccc(NC(=O)c2ccccc2-c2ccc(C(F)(F)F)cc2)c(C(=O)N(C)C)c1)(C(=O)OCC)c1ccccc1Cl [Example 2-71] | 0.54 |
| CCOC(=O)C(COC(=O)Cc1ccc(NC(=O)c2ccccc2-c2ccc(C(F)(F)F)cc2)c(C(=O)N(C)C)c1)(C(=O)OCC)c1cccc(Cl)c1 [Example 2-72] | 0.95 |
| CCOC(=O)C(COC(=O)Cc1ccc(NC(=O)c2ccccc2-c2ccc(C(F)(F)F)cc2)c(C(=O)N(C)C)c1)(C(=O)OCC)c1ccc(Cl)cc1 [Example 2-73] | 2.93 |
| CCOC(=O)CC(COC(=O)Cc1ccc(NC(=O)c2ccccc2-c2ccc(C(F)(F)F)cc2)c(C(=O)N(C)C)c1)(C(=O)OCC)c1ccccc1 (stereo not shown) [Example 2-74] | 0.84 |
| CCOC(=O)C(COC(=O)Cc1ccc(NC(=O)c2ccccc2-c2ccc(C(F)(F)F)cc2)c(C(=O)N(C)C)c1)(C(=O)OCC)c1ccccc1OC [Example 2-75] | 12.5 |
| CCOC(=O)C(COC(=O)Cc1ccc(NC(=O)c2ccccc2-c2ccc(C(F)(F)F)cc2)c(C(=O)N(C)C)c1)(C(=O)OCC)c1cccc(OC)c1 [Example 2-76] | 0.85 |
| CCOC(=O)C(COC(=O)Cc1ccc(NC(=O)c2ccccc2-c2ccc(C(F)(F)F)cc2)c(C(=O)N(C)C)c1)(C(=O)OCC)c1ccc(OC)cc1 [Example 2-77] | 2.74 |
| CCOC(=O)C(COC(=O)Cc1ccc(NC(=O)c2ccc(C(F)(F)F)cc2-c2ccc(C(F)(F)F)cc2)c(C(=O)N(C)C)c1)(C(=O)OCC)c1ccccc1 [Example 2-78] | 0.14 |
| CCOC(=O)C(COC(=O)Cc1ccc(NC(=O)c2cccc(Cl)c2-c2ccc(C(F)(F)F)cc2)c(C(=O)N(C)C)c1)(C(=O)OCC)c1ccccc1 [Example 2-79] | 1.3 |
| CCOC(=O)C(COC(=O)Cc1ccc(NC(=O)c2cccc(F)c2-c2ccc(C(F)(F)F)cc2)c(C(=O)N(C)C)c1)(C(=O)OCC)c1ccccc1 [Example 2-80] | 0.79 |
| CCOC(=O)C(CCOC(=O)Cc1ccc(NC(=O)c2ccc(C)cc2-c2ccc(C(F)(F)F)cc2)c(C(=O)N(C)C)c1)(C(=O)OCC)c1ccccc1 [Example 2-81] | 0.96 |
| CCOC(=O)C(COC(=O)Cc1ccc(NC(=O)c2ccc(OCC)cc2-c2ccc(C(F)(F)F)cc2)c(C(=O)N(C)C)c1)(C(=O)OCC)c1ccccc1 [Example 2-82] | 4.41 |
| CCOC(=O)C(COC(=O)Cc1ccc(NC(=O)c2ccc(OC(C)C)cc2-c2ccc(C(F)(F)F)cc2)c(C(=O)N(C)C)c1)(C(=O)OCC)c1ccccc1 [Example 2-83] | 8.87 |
| CCOC(=O)C(CCOC(=O)Cc1ccc(NC(=O)c2ccc(C(F)(F)F)cc2-c2ccc(C(F)(F)F)cc2)c(C(=O)N(C)C)c1)(C(=O)OCC)c1ccccc1 [Example 2-84] | 2.01 |
| CCOC(=O)C(COC(=O)Cc1ccc(NC(=O)c2cccc(OC)c2-c2ccc(C(F)(F)F)cc2)c(C(=O)N(C)C)c1)(C(=O)OCC)c1ccccc1 [Example 2-85] | 0.49 |
| CCOC(=O)C(COC(=O)Cc1ccc(NC(=O)c2c(C)cccc2-c2ccc(C(F)(F)F)cc2)c(C(=O)N(C)C)c1)(C(=O)OCC)c1ccccc1 [Example 2-86] | 0.42 |

| SMILES | IC50 [nM] |
| --- | --- |
| CCOC(=O)C(COC(=O)Cc1ccc(NC(=O)c2ccccc2-c2ccc(C)cc2)c(C(=O)N(C)C)c1)(C(=O)OCC)c1ccccc1 [Example 2-88] | 1.92 |
| CCOC(=O)C(COC(=O)Cc1ccc(NC(=O)c2ccccc2-c2ccc(CC)cc2)c(C(=O)N(C)C)c1)(C(=O)OCC)c1ccccc1 [Example 2-90] | 1.74 |
| C=C(C)c1ccc(-c2ccccc2C(=O)Nc2ccc(CC(=O)OCC(C(=O)OCC)(C(=O)OCC)c3ccccc3)cc2C(=O)N(C)C)cc1 [Example 2-91] | 0.54 |
| CCOC(=O)C(COC(=O)Cc1ccc(NC(=O)c2ccccc2-c2ccc(C(C)C)cc2)c(C(=O)N(C)C)c1)(C(=O)OCC)c1ccccc1 [Example 2-92] | 1.47 |
| C=C(C)c1cc(C(F)(F)F)ccc1C(=O)Nc1ccc(CC(=O)OCC(C(=O)OCC)(C(=O)OCC)c2ccccc2)cc1C(=O)N(C)C [Example 2-93] | 45.8 |
| CCOC(=O)C(COC(=O)Cc1ccc(NC(=O)c2ccccc2Nc2cccc(C(F)(F)F)c2)c(C(=O)N(C)C)c1)(C(=O)OCC)c1ccccc1 [Example 2-95] | 18 |
| CCOC(=O)C(COC(=O)Cc1ccc(OC(=O)c2ccccc2-c2ccc(C(F)(F)F)cc2)c(C(=O)N(C)C)c1)(C(=O)OCC)c1ccccc1 [Example 2-96] | 81 |
| CCOC(=O)C(COC(=O)Cc1ccc(NC(=O)c2ccccc2Oc2cccc(C(F)(F)F)c2)c(C(=O)N(C)C)c1)(C(=O)OCC)c1ccccc1 [Example 2-97] | 22 |
| CCC(CC)(COC(=O)Cc1ccc(NC(=O)c2ccccc2-c2ccc(C(F)(F)F)cc2)c(C(=O)N(C)C)c1)c1ccccc1 [Example 2-98] | 0.97 |
| CCOC(=O)C(COC(=O)Cc1ccc(NC(=O)c2ccccc2Oc2ccc(C(F)(F)F)cc2)c(C(=O)N(C)C)c1)(C(=O)OCC)c1ccccc1 [Example 2-99] | 19 |
| CN(C)C(=O)c1cc(CC(=O)OCC2(c3ccccc3)CCCC2)ccc1NC(=O)c1ccccc1-c1ccc(C(F)(F)F)cc1 [Example 2-102] | 14.6 |
| CN(C)C(=O)c1cc(CC(=O)OCC(CO)(CO)c2ccccc2)ccc1NC(=O)c1ccccc1-c1ccc(C(F)(F)F)cc1 [Example 2-103] | 42.6 |
| CC(=O)OCC(COC(C)=O)(COC(=O)Cc1ccc(NC(=O)c2ccccc2-c2ccc(C(F)(F)F)cc2)c(C(=O)N(C)C)c1)c1ccccc1 [Example 2-104] | 3.58 |
| CCOC(=O)C(COC(=O)Cc1ccc(NC(=O)c2ccccc2-c2ccc(C(F)(F)F)cc2)c(C(=O)N(C)C)c1)(C(=O)OCC)c1cccs1 [Example 2-105] | 0.2 |
| CCOC(=O)C(COC(=O)Cc1ccc(NC(=O)c2ccccc2-c2ccc(C(F)(F)F)cc2)c(C(=O)N(C)C)c1)(C(=O)OCC)c1ccsc1 [Example 2-106] | 0.44 |
| CCOC(=O)C(COC(=O)Cc1cc(C(=O)N(C)C)c(NC(=O)c2ccccc2-c2ccc(C(F)(F)F)cc2)cn1)(C(=O)OCC)c1ccccc1 [Example 2-107] | 50 |
| CCOC(=O)C(COC(=O)Cc1ccc(NC(=O)c2ccccc2-c2ccc(C(F)(F)F)cc2)c(C(=O)N(C)C)c1)(C(=O)OCC)c1sccc1C [Example 2-108] | 0.82 |
| CCOC(=O)C(COC(=O)Cc1ccc(NC(=O)c2ccccc2-c2ccc(C(F)(F)F)cc2)c(C(=O)N(C)C)c1)(C(=O)OCC)c1ccc(C)s1 [Example 2-109] | 0.93 |
| CCOC(=O)C(COC(=O)Cc1ccc(NC(=O)c2ccccc2-c2ccc(C(F)(F)F)cc2)c(C(=O)N(C)C)c1)(C(=O)OCC)c1nccs1 [Example 2-110] | 0.65 |
| CCCC(COC(=O)Cc1ccc(NC(=O)c2ccccc2-c2ccc(C(F)(F)F)cc2)c(C(=O)N(C)C)c1)(C(=O)OCC)C(=O)OCC [Example 2-114] | 3.1 |
| CCOC(=O)C(CC)(COC(=O)Cc1ccc(NC(=O)c2ccccc2-c2ccc(C(F)(F)F)cc2)c(C(=O)N(C)C)c1)C(=O)OCC [Example 2-115] | 44 |
| C=CCC(COC(=O)Cc1ccc(NC(=O)c2ccccc2-c2ccc(C(F)(F)F)cc2)c(C(=O)N(C)C)c1)(C(=O)OCC)C(=O)OCC [Example 2-117] | 38 |
| CCOC(=O)C(COC(=O)Cc1ccc(NC(=O)c2ccccc2-c2ccc(C(F)(F)F)cc2)c(C(=O)N(C)C)c1)(C(=O)OCC)C(=O)OCC [Example 2-118] | 49 |
